Results reported in publication PMC10257291, “Biological activities of extracts and compounds from Thai Kae-Lae (Maclura cochinchinensis (Lour.) Corner)” (BMC Complementary Medicine and Therapies, 2023).

What was measured:
WT1 protein = system: WT1 protein; parameters: method as in PMID 29274817; details: compounds from Mah-Lueang; cited from earlier work

Protocol for red blood cells: The whole blood samples were obtained from normal volunteers. Red blood cells were separated by centrifugation and washed 2 times with 0.9% NaCl. Then, 2% RBC suspension was incubated with crude fractional extracts and compounds at 37 °C for 30 min. Triton-X 100 (2%) and NaCl (0.9%) were positive and negative controls, respectively. Then, the supernatant was collected, and haemoglobin concentration was measured by spectrophotometry at 540 nm. The haemolysis induction was calculated using the following equation:5 %Haemolysisinduction=Absorbance of sample/Absorbance of positive contr×100

Row | Compound | decrease of WT1 protein in KG-1a cells (WT1 protein) [%] | Haemolysis (%) (red blood cells)
1 | CC(C)=C1C[C@@H]2O[C@@]2(C)CC/C=C(\C)CC1=O [Germacrone-4,5-epoxide] | 92.22 | –
2 | CC(C)=C1C[C@H]2[C@@H](CC[C@]2(C)O)[C@](C)(O)CC1=O [zedoarondiol] | 95.52 | –
3 | Triton X100 [0.05% Triton X100] | – | 100
